Some test systems named below: A549 NSCLC; HT29 colon; K-562 leukemia; MALME-3M melanoma; OVCAR-4 ovarian; SK-OV-3 ovarian; TK-10 renal; UACC-257 melanoma; UACC-62 melanoma; NCI/ADR-RES ovarian.
What all share (test): NCI anticancer screen, dose series, 48 h

The record followed here is PubChem BioAssay (NCI).

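In this assay, cells in 96-well plates receive the compound at five concentrations for 48 hours. Endpoints are linearly interpolated between the surrounding concentrations. GI50: concentration for 50% inhibition of growth. TGI: total growth inhibition.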 Some results are limits rather than exact numbers.

`CC[O-].CC[O-].O=C1C=C([O-])C(=O)c2ccccc21.O=C1C=C([O-])C(=O)c2ccccc21.[Ti+4]`: the GI50 was 26 µM in the experiment on A549 NSCLC; 22.4 µM with HT29 colon; 69.6 µM in the experiment with K-562 leukemia; 9.89 µM with MALME-3M melanoma; above 100 µM in the experiment on OVCAR-4 ovarian; above 100 µM in the experiment on SK-OV-3 ovarian. Moreover, the GI50 in the experiment with TK-10 renal is above 67.7 µM; in the experiment with UACC-257 melanoma, above 27.9 µM; in the experiment on UACC-62 melanoma, 21.5 µM. Moreover, the TGI with A549 NSCLC, in the experiment on HT29 colon, in the experiment on K-562 leukemia, in the experiment on MALME-3M melanoma, in the experiment with OVCAR-4 ovarian and in the experiment with SK-OV-3 ovarian was above 100 µM each time. Moreover, the TGI with TK-10 renal, in the experiment on UACC-257 melanoma and with UACC-62 melanoma was above 100 µM each time.

With `CCN(N=O)C1C2(CCCC2)NC(=O)C12CCCC2` (stereo not given), the TGI in the experiment on A549 NSCLC, in the experiment on HT29 colon, with K-562 leukemia, with MALME-3M melanoma, with OVCAR-4 ovarian and with SK-OV-3 ovarian was above 100 µM each time. Moreover, the TGI in the experiment on TK-10 renal, in the experiment with UACC-257 melanoma and in the experiment with UACC-62 melanoma was above 100 µM throughout.

Take `COc1ccc(OC(=O)N2C/C(=C\c3ccccc3)C(=O)/C(=C/c3ccccc3)C2)cc1`: the TGI with A549 NSCLC turned out to be 38.9 µM; in the experiment with HT29 colon, 3.73 µM; in the experiment on K-562 leukemia, 7.66 µM; with MALME-3M melanoma it was 27.8 µM; in the experiment on OVCAR-4 ovarian, 23.5 µM; in the experiment on SK-OV-3 ovarian it was 24.9 µM. In addition, the TGI came to 44 µM in the experiment with TK-10 renal, 7.71 µM in the experiment with UACC-257 melanoma and 5.35 µM in the experiment with UACC-62 melanoma.

`O=C1CCc2cc(Br)ccc2O1`: the TGI in the experiment on A549 NSCLC, with HT29 colon, with K-562 leukemia, with MALME-3M melanoma, with OVCAR-4 ovarian and with TK-10 renal was above 100 µM in each case. In addition, the TGI with UACC-257 melanoma and in the experiment with UACC-62 melanoma was above 100 µM throughout.

On to `CC1(C)CC[C@]23CC[C@]4(C)[C@H](CC[C@@H]5[C@@]6(C)CCCNC(C)(C)[C@@H]6CC[C@]54C)[C@H]2[C@H]1OC3`, for which the GI50 was 1.81 µM in the experiment with A549 NSCLC; 1.78 µM with HT29 colon; 1.96 µM in the experiment on K-562 leukemia; 1.79 µM in the experiment on MALME-3M melanoma; 1.65 µM in the experiment on OVCAR-4 ovarian; 2.73 µM with SK-OV-3 ovarian. Moreover, the GI50 in the experiment on TK-10 renal was 1.89 µM; in the experiment with UACC-257 melanoma, 1.92 µM; in the experiment with UACC-62 melanoma it was 1.79 µM. Further, the TGI in the experiment with A549 NSCLC amounted to 3.43 µM; in the experiment with HT29 colon it was 3.63 µM; in the experiment with K-562 leukemia, 7 µM; with MALME-3M melanoma it was 3.47 µM; in the experiment with OVCAR-4 ovarian, 3.12 µM; in the experiment with SK-OV-3 ovarian, 7.93 µM. Also, the figures for the TGI in the experiment with TK-10 renal, in the experiment with UACC-257 melanoma and in the experiment on UACC-62 melanoma were 3.61 µM, 3.87 µM and 3.21 µM, respectively.

On to `COc1ccc2nc3cc([N+](=O)[O-])ccc3c(NCCO)c2c1`, for which the GI50 in the experiment with A549 NSCLC is 4.44 µM; in the experiment with HT29 colon, 2.34 µM; in the experiment with K-562 leukemia it was 1.22 µM; with NCI/ADR-RES ovarian, 10 µM; in the experiment on OVCAR-4 ovarian, 1.77 µM; with SK-OV-3 ovarian it was 2.78 µM. Besides, the GI50 was 2.61 µM in the experiment with UACC-257 melanoma and 1.93 µM in the experiment with UACC-62 melanoma. The TGI in the experiment on A549 NSCLC was found to be 23.9 µM; with HT29 colon, 5.13 µM; with K-562 leukemia, 3.85 µM; in the experiment with OVCAR-4 ovarian, 3.99 µM; with SK-OV-3 ovarian, 14.9 µM; in the experiment on UACC-257 melanoma, 7.68 µM. Further, in the experiment with UACC-62 melanoma, the TGI came out at 5.23 µM.

Take `Cc1[nH]c(=O)n2c(C)nnc2c1C(=O)O`: the TGI in the experiment on HT29 colon, with K-562 leukemia, with MALME-3M melanoma, with OVCAR-4 ovarian, in the experiment on SK-OV-3 ovarian and in the experiment on TK-10 renal was above 100 µM in each case. The same compound gave a TGI with UACC-62 melanoma above 100 µM.

On to `NNC(=O)/C(NC(=O)c1ccccc1)=C(\N)c1cccc([N+](=O)[O-])c1`, for which the TGI in the experiment on A549 NSCLC, with HT29 colon, with K-562 leukemia, in the experiment on MALME-3M melanoma, in the experiment with OVCAR-4 ovarian and in the experiment on SK-OV-3 ovarian was above 100 µM in each case. Also, the TGI in the experiment with TK-10 renal, with UACC-257 melanoma and in the experiment on UACC-62 melanoma was above 100 µM throughout.

Turning to `OC1(C(Sc2ccccc2)Sc2ccccc2)CCCCCC1`, the TGI was 89.5 µM with A549 NSCLC; above 100 µM in the experiment with OVCAR-4 ovarian; 53.5 µM with SK-OV-3 ovarian; above 100 µM in the experiment with TK-10 renal; 69.4 µM with UACC-257 melanoma; 28.5 µM with UACC-62 melanoma.

With `Cc1ccc(NC(=S)NNC(=S)Nc2ccc(C)cc2)cc1`, the GI50 in the experiment on A549 NSCLC was 6.03 µM; with HT29 colon, 3.61 µM; with MALME-3M melanoma it was 7.07 µM; in the experiment with NCI/ADR-RES ovarian, 2.55 µM; in the experiment on OVCAR-4 ovarian, above 100 µM; in the experiment on SK-OV-3 ovarian it was 17.3 µM. For the same compound, the GI50 was 18.2 µM in the experiment with TK-10 renal, 7.13 µM in the experiment on UACC-257 melanoma and 5.17 µM in the experiment on UACC-62 melanoma. Moreover, the TGI was above 100 µM with A549 NSCLC; above 100 µM in the experiment on HT29 colon; above 100 µM in the experiment on MALME-3M melanoma; 8.52 µM in the experiment on NCI/ADR-RES ovarian; above 100 µM in the experiment with OVCAR-4 ovarian; above 100 µM in the experiment with SK-OV-3 ovarian. Moreover, the TGI in the experiment on TK-10 renal, in the experiment on UACC-257 melanoma and in the experiment with UACC-62 melanoma was above 100 µM throughout.

As to `CC(=O)OC(C(=O)[O][Ge]([CH3])([CH3])[CH3])c1ccccc1` (stereo not given), the GI50 in the experiment on A549 NSCLC, in the experiment on HT29 colon, in the experiment with K-562 leukemia, in the experiment with MALME-3M melanoma, with OVCAR-4 ovarian and in the experiment with SK-OV-3 ovarian was above 100 µM each time. Also, the GI50 in the experiment with TK-10 renal, in the experiment on UACC-257 melanoma and in the experiment on UACC-62 melanoma was above 100 µM in each case. Also, the TGI in the experiment with A549 NSCLC, with HT29 colon, with K-562 leukemia, in the experiment on MALME-3M melanoma, in the experiment on OVCAR-4 ovarian and with SK-OV-3 ovarian was above 100 µM throughout. Further, the TGI with TK-10 renal, in the experiment with UACC-257 melanoma and with UACC-62 melanoma was above 100 µM throughout.
